Assay results as given in patent US8263754B2, “Amphiphiles for protein solubilization and stabilization” (Wisconsin Alumni Research Foundation, priority 2008, dated 2012).

Assay: Critical micelle concentration (CMC) by dye solubilization (Orange OT or DPH)
Assay type: physicochemical
Conditions: determined by DPH (diphenylhexatriene) or Orange OT
From the text: Aqueous solubilization of Orange OT was used to determine critical micelle concentrations (CMC). […] Facile self-association of these amphiphiles under these conditions may be hindered by the hydrophilicity and/or steric bulk of the triglucoside and dimaltoside headgroups.
The Critical Micelle Concentrations (CMCs) of compounds of the invention can be determined by standard techniques known to those of skill in the art. For example, CMCs of the carbohydrate-based amphiphiles described herein can be determined by monitoring uptake of a dye (e.g., Orange OT or 1,6-diphenylhexatriene) with increasing detergent concentration, monitored by UV-visible or fluorescence spectroscopy.

Row | SMILES | CMC | CMC (%)
1 | CCCCCCCCC(=O)NC(CO[C@@H]1O[C@H](CO)[C@@H](O)[C@H](O)[C@H]1O)CO[C@@H]1O[C@H](CO)[C@@H](O)[C@H](O)[C@H]1O [C8-MPA2] | 77 mM | 4.3%
2 | CCCCC(CCCC)(CC(=O)NC(CO[C@@H]1O[C@H](CO)[C@@H](O)[C@H](O)[C@H]1O)CO[C@@H]1O[C@H](CO)[C@@H](O)[C@H](O)[C@H]1O)CC(C)C [TPA25] | 4.1 mM | 0.26%
3 | CCCCC(CCCC)(CC(=O)NC(CO[C@@H]1O[C@H](CO)[C@@H](O)[C@H](O)[C@H]1O)CO[C@@H]1O[C@H](CO)[C@@H](O)[C@H](O)[C@H]1O)c1ccc(C(C)C)cc1 [TPA 32] | 1.3 mM | 0.091%
4 | CC12CC3CC(C)(C1)CC(CC(=O)NCCO[C@H]1OC(CO)[C@H](O[C@@H]4OC(CO)[C@H](O)C(O)[C@H]4O)C(O)[C@H]1O)(C3)C2 (stereo partly shown) [TPA 44] | 19.1 mM | 1.1%
5 | O=C(NCCO[C@@H]1O[C@H](CO)[C@@H](O[C@H]2O[C@H](CO)[C@@H](O)[C@H](O)[C@H]2O)[C@H](O)[C@H]1O)C(C1CCCCC1)C1CCCCC1 [DPA 69] | 13.9 mM | 0.82%
6 | CCCCCC[C@]1(CC(=O)NC(CO[C@H]2OC(CO)[C@H](O)C(O)[C@H]2O)CO[C@H]2OC(CO)[C@H](O)C(O)[C@H]2O)C2C[C@@H]3C[C@H](C2)C[C@@H]1C3 (stereo partly shown) [TPA 52] | 1.1 mM | 0.075%
7 | CCCCCC(CCCCC)(CC(=O)NC(CO[C@@H]1O[C@H](CO)[C@@H](O)[C@H](O)[C@H]1O)CO[C@@H]1O[C@H](CO)[C@@H](O)[C@H](O)[C@H]1O)c1ccccc1 [TPA 35] | 1.2 mM | 0.083%
8 | CCCCCCC(CCCCCC)(CC(=O)NC(CO[C@@H]1O[C@H](CO)[C@@H](O)[C@H](O)[C@H]1O)CO[C@@H]1O[C@H](CO)[C@@H](O)[C@H](O)[C@H]1O)c1ccccc1 [TPA 36] | 0.56 mM | 0.04%
9 | CC(C)(C)CC(C)(C)c1ccc(OCC(=O)NCCC[N+](C)(C)[O-])cc1 [Triton-N-oxide] | 1.1 mM | 0.04%
10 | CCCCCCC(CCCCCC)(CC(=O)NC(CO[C@@H]1O[C@H](CO)[C@@H](O)[C@H](O)[C@H]1O)(CO[C@@H]1O[C@H](CO)[C@@H](O)[C@H](O)[C@H]1O)CO[C@@H]1O[C@H](CO)[C@@H](O)[C@H](O)[C@H]1O)c1ccccc1 [TPA17] | 1.4 mM | 0.13%
11 | CCCCC(CCCC)(CC(=O)NC(CO[C@@H]1O[C@H](CO)[C@@H](O[C@H]2O[C@H](CO)[C@@H](O)[C@H](O)[C@H]2O)[C@H](O)[C@H]1O)CO[C@@H]1O[C@H](CO)[C@@H](O[C@H]2O[C@H](CO)[C@@H](O)[C@H](O)[C@H]2O)[C@H](O)[C@H]1O)c1ccc(C(C)(C)C)cc1 [TPA16] | 3.3 mM | 0.34%
12 | CCCCC(CCCC)(CC(=O)NC(COC1OC(CO)C(OC2OC(CO)C(O)C(O)C2O)C(O)C1O)COC1OC(CO)C(OC2OC(CO)C(O)C(O)C2O)C(O)C1O)c1ccc(-c2ccccc2)cc1 (stereo not shown) [TPA15] | 1.7 mM | 0.18%
13 | CCCC[C@]1(CC(=O)NC(CO[C@H]2OC(CO)[C@H](O)C(O)[C@H]2O)CO[C@H]2OC(CO)[C@H](O)C(O)[C@H]2O)C2C[C@@H]3C[C@H](C2)C[C@@H]1C3 (stereo partly shown) [TPA 45] | 6.4 mM | 0.41%
14 | CCCCCCC(CCCCCC)(CC(=O)NC(CO[C@@H]1O[C@H](CO)[C@@H](O[C@H]2O[C@H](CO)[C@@H](O)[C@H](O)[C@H]2O)[C@H](O)[C@H]1O)CO[C@@H]1O[C@H](CO)[C@@H](O[C@H]2O[C@H](CO)[C@@H](O)[C@H](O)[C@H]2O)[C@H](O)[C@H]1O)c1ccccc1 [TPA18] | 0.3 mM | 0.03%
15 | CCCCC(CCCC)(CC(=O)NC(COC1OC(CO)C(O)C(O)C1O)COC1OC(CO)C(O)C(O)C1O)c1ccc(-c2ccccc2)cc1 (stereo not shown) [TPA 34] | 0.14 mM | 0.01%
16 | CCCCCCCCCCC(=O)NC(CO[C@@H]1O[C@H](CO)[C@@H](O)[C@H](O)[C@H]1O)CO[C@@H]1O[C@H](CO)[C@@H](O)[C@H](O)[C@H]1O [C10-MPA 2] | 8.1 mM | 0.47%
17 | CCCC[C@]1(CC(=O)NCCO[C@H]2OC(CO)[C@H](O[C@@H]3OC(CO)[C@H](O)C(O)[C@H]3O)C(O)[C@H]2O)C2C[C@@H]3C[C@H](C2)C[C@@H]1C3 (stereo partly shown) [TPA 46] | 2.6 mM | 0.16%
18 | CC(C)(C)CC(C)(C)c1ccc(OCC(=O)NC(COC2OC(CO)C(O)C(O)C2O)COC2OC(CO)C(O)C(O)C2O)cc1 (stereo not shown) [CGT2] | 2.6 mM | 0.17%

Row | SMILES | CMC | CMC (%)
19 | CCCCCCCCCCCCCCC(=O)NC(CO[C@@H]1O[C@H](CO)[C@@H](O)[C@H](O)[C@H]1O)CO[C@@H]1O[C@H](CO)[C@@H](O)[C@H](O)[C@H]1O [C14-MPA2] | 0.17 mM | 0.011%
20 | CCCCC(CCCC)(CC(=O)NC(CO[C@@H]1O[C@H](CO)[C@@H](O[C@H]2O[C@H](CO)[C@@H](O)[C@H](O)[C@H]2O)[C@H](O)[C@H]1O)CO[C@@H]1O[C@H](CO)[C@@H](O[C@H]2O[C@H](CO)[C@@H](O)[C@H](O)[C@H]2O)[C@H](O)[C@H]1O)C1CCCCC1 [TPA24] | 1.9 mM | 0.19%
21 | CCCCC(CC(=O)NC(CO[C@@H]1O[C@H](CO)[C@@H](O)[C@H](O)[C@H]1O)CO[C@@H]1O[C@H](CO)[C@@H](O)[C@H](O)[C@H]1O)(C1CCCCC1)C1CCCCC1 [TPA 49] | 0.64 mM | 0.04%
22 | CC(CC(=O)NC(CO[C@@H]1O[C@H](CO)[C@@H](O)[C@H](O)[C@H]1O)CO[C@@H]1O[C@H](CO)[C@@H](O)[C@H](O)[C@H]1O)(C1CCCCC1)C1CCCCC1 [TPA 47] | 4.7 mM | 0.3%
23 | O=C(CC1(C2CCCCC2)CCCCCCC1)NC(CO[C@@H]1O[C@H](CO)[C@@H](O)[C@H](O)[C@H]1O)CO[C@@H]1O[C@H](CO)[C@@H](O)[C@H](O)[C@H]1O [TPA 54] | 4.5 mM | 0.29%
24 | CCCCC(CCCC)(CC(=O)NC(CO[C@@H]1O[C@H](CO)[C@@H](O)[C@H](O)[C@H]1O)CO[C@@H]1O[C@H](CO)[C@@H](O)[C@H](O)[C@H]1O)c1ccc(C(C)(C)C)cc1 [TPA 33] | 0.42 mM | 0.03%
25 | O=C(CC1(C2CCCCC2)CCCCCC1)NC(CO[C@@H]1O[C@H](CO)[C@@H](O)[C@H](O)[C@H]1O)CO[C@@H]1O[C@H](CO)[C@@H](O)[C@H](O)[C@H]1O [TPA 53] | 13.8 mM | 0.88%
26 | CCCCC(CCCC)(CC(=O)NC(COC1OC(CO)C(O)C(O)C1O)COC1OC(CO)C(O)C(O)C1O)C1CCCC1 (stereo not shown) [TPA 57] | 2.25 mM | 0.15%
27 | O=C(CC1(C2CCCCC2)CCCCC1)NC(CO[C@@H]1O[C@H](CO)[C@@H](O)[C@H](O)[C@H]1O)CO[C@@H]1O[C@H](CO)[C@@H](O)[C@H](O)[C@H]1O [TPA 50] | 19.2 mM | 1.19%
28 | CCCCC(CCCC)(CC(=O)NC(CO[C@@H]1O[C@H](CO)[C@@H](O)[C@H](O)[C@H]1O)CO[C@@H]1O[C@H](CO)[C@@H](O)[C@H](O)[C@H]1O)c1ccc(I)cc1 [TPA 28] | 0.89 mM | 0.07%
29 | CCCCC(CCCC)(CC(=O)NC(CO[C@@H]1O[C@H](CO)[C@@H](O)[C@H](O)[C@H]1O)(CO[C@@H]1O[C@H](CO)[C@@H](O)[C@H](O)[C@H]1O)CO[C@@H]1O[C@H](CO)[C@@H](O)[C@H](O)[C@H]1O)c1ccc(C(C)(C)C)cc1 [TPA14] | 3.4 mM | 0.31%
30 | O=C(NCCOC1OC(CO)C(OC2OC(CO)C(O)C(O)C2O)C(O)C1O)C(c1ccccc1)c1ccccc1 (stereo not shown) [DPA 68] | 85.3 mM | 4.95%
31 | CCCCC(CCCC)(CC(=O)NC(CO[C@@H]1O[C@H](CO)[C@@H](O)[C@H](O)[C@H]1O)(CO[C@@H]1O[C@H](CO)[C@@H](O)[C@H](O)[C@H]1O)CO[C@@H]1O[C@H](CO)[C@@H](O)[C@H](O)[C@H]1O)c1ccc(-c2ccccc2)cc1 [TPA13] | 3.7 mM | 0.34%
32 | O=C(NCCO[C@H]1OC(CO)[C@H](O)C(O)[C@H]1O)C12CC3CC(CC(C3)C1)C2 (stereo partly shown) [TPA 41] | 180 mM | 6.9%
33 | CCCCCC(CC(=O)NC(CO[C@@H]1O[C@H](CO)[C@@H](O)[C@H](O)[C@H]1O)CO[C@@H]1O[C@H](CO)[C@@H](O)[C@H](O)[C@H]1O)(C1CCCCC1)C1CCCCC1 [TPA 73] | 0.21 mM | 0.014%
34 | CCCCC(CCCC)(CC(=O)NC(COC1OC(CO)C(O)C(O)C1O)COC1OC(CO)C(O)C(O)C1O)c1ccc(C)cc1 (stereo not shown) [TPA 31] | 2.4 mM | 0.16%
35 | CCCCC(CCCC)(CC(=O)NC(CO[C@@H]1O[C@H](CO)[C@@H](O)[C@H](O)[C@H]1O)(CO[C@@H]1O[C@H](CO)[C@@H](O)[C@H](O)[C@H]1O)CO[C@@H]1O[C@H](CO)[C@@H](O)[C@H](O)[C@H]1O)C1CCCCC1 [TPA22] | 3.7 mM | 0.32%
